Assay: Stability in aqueous solution, analysed by 1H NMR
Format: physicochemical
Description: The product of Example 2 (PHBPQ, N-phenyl-2-hydroxy-2 butyl 1,3-propanal quinoneimine) was examined for stability in aqueous solution, followed by analysis by ^1H NMR spectroscopy.

With “N-phenyl-2-hydroxy-2 butyl 1,3-propanal quinoneimine [PHBPQ]” the “stability compared with 4-OH-OPB” value (pH 7.4) was “more stable at pH 7.4 than 4-OH-OPB” and the “re-conversion into 4-OH-OPB” value (when the solution was acidified) was “not re-converted into 4-OH-OPB”.

From US7663000B2, “Quinoneimines of malonic acid diamides” (A-Viral ASA, priority 2003, dated 2010)
